Reference: patent US20040242459A1 (priority 2001, published 2004)
Marks after values point to notes of the source that are not given here.

Key:
[1] = tested on: adjuvant-induced arthritis in female Lewis rats; details: for Secondary Foot Volume % Inhibition Compared to Vehicle Day 21-0 / Change in Secondary Foot Volume Day 21-0 / Change in Secondary Foot Volume Day 14-0 / Secondary Foot Volume % Inhibition Compared to Vehicle Day 14-0: contralateral paw; for Change in Secondary Foot Volume Day 21-0: mean, SD wrapped to next line; for Change in Secondary Foot Volume Day 14-0 / Change in Primary Foot Volume Day 4-0 / change in body weight Day 21-0 / change in body weight Day 14-0: p.o. q.d.; for Change in Secondary Foot Volume Day 14-0 / Change in Primary Foot Volume Day 4-0 / change in body weight Day 14-0: Compounds 1, 2, 4, 6 30 mg/kg/day; for Change in Secondary Foot Volume Day 14-0 / Change in Primary Foot Volume Day 4-0: Compound 3 50, Compound 5 100, indomethacin 2; for Change in Secondary Foot Volume Day 14-0 / Change in Primary Foot Volume Day 21-0 / Change in Primary Foot Volume Day 4-0 / Change in Primary Foot Volume Day 14-0 / radiographic total scores on day 21, Primary (injected) paw / radiographic total scores on day 21, Secondary (contralateral) Paw / change in body weight Day 21-0 / change in body weight Day 14-0 / Spleen / Thymus (mg) / Thymus: mean ± SD; for Secondary Foot Volume % Inhibition Compared to Vehicle Day 14-0 / Primary Foot Volume % Inhibition Compared to Vehicle Day 4-0 / Primary Foot Volume % Inhibition Compared to Vehicle Day 14-0 / Change in Primary Foot Volume Day 14-0: same doses p.o. q.d.; for radiographic total scores on day 21, Primary (injected) paw / radiographic total scores on day 21, Secondary (contralateral) Paw: maximum score per foot 26; for change in body weight Day 21-0: indomethacin 2 mg/kg/day; for change in body weight Day 14-0: Compound 3 50, Compound 5 100, indomethacin 2 mg/kg/day; for body weight gain compared with vehicle-treated animals: prophylactic, Compound 1 30 mg/kg q.d.; for Spleen / Thymus (mg) / Thymus: weight at necropsy, day of euthanasia 21 (Compound 1, indomethacin) or 15 (Compounds 2-6); for prevention of swelling of primary or secondary paws: up to day 14, rats then euthanized
Procedure: Nine groups of 10 rats each were injected with an emulsion containing 0.5 mg of Mycobacterium butyricum in 0.1 ml of light mineral oil, and a negative control group of 10 rats was not injected with adjuvant. Body weights, primary (injected) and contralateral (non-injected) paw volumes (determined by mercury displacement plethysmography) and lateral radiographs (obtained under Ketamine and Xylazine anesthesia) were determined before (day-1) and at various time points including 21 days following adjuvant injection. The rats were anesthetized with an intramuscular injection of 0.03-0.1 ml of a combination of Ketamine (87 mg/kg) and Xylazine (13 mg/kg) for radiographs and injection of adjuvant. Lateral to medial radiographs were made of both hind paws on days 0 and 21 for using the Faxitron (45 kVp, 30 seconds or 45 kVp, 1 second) and Kodak X-OMAT TL film, and were developed in an automatic processor. […] Specific criteria were used to establish the numerical grade of severity for each radiographic change. The maximum possible score per foot was 26. Compounds or vehicle were administered prophylactically beginning post injection of adjuvant and continuing for 21 days. The Compounds were prepared weekly, refrigerated in the dark until used, and vortex mixed immediately prior to administration. […] The liver, thymus and spleens of all rats were removed and weighed and both hind paws were removed and radiographed.
Two-factor (‘treatment’ and ‘time’) analysis of variance with repeated measures on ‘time’ were applied to the percent changes for body weight and foot volumes and to the rank-transformed radiographic total scores. A post hoc Dunnett's test was conducted to compare the effect of treatments to vehicle. A one-way analysis of variance was applied to the thymic and spleen weights followed by the Dunnett's test to compare the effect of treatments to vehicle.
Compounds or vehicle (0.5% Methocel in sterile water) were administered by oral gavage once daily for 21 days following induction of arthritis in female Lewis rats via the sub plantar injection of 0.1 ml of light mineral oil containing 0.5 mg of Mycobacterium butyricum. Control animals were not injected with adjuvant. Body weights were measured 1 day prior to (i.e. day 0) and at 14 and 21 days post induction of arthritis. The data in Table 1 represent the mean increase or decrease in body weight ±1 standard deviation for groups of 9 to 10 animals.
Compounds or vehicle (0.5% Methocel in sterile water) were administered by oral gavage once daily for 21 days following induction of arthritis in female Lewis rats via the sub plantar injection of 0.1 ml of light mineral oil containing 0.5 mg of Mycobacterium butyricum. Control animals were not injected with adjuvant.
Injected foot volumes were measured by mercury displacement plethysmography prior to induction of arthritis, and on days 4, 14 and 21 post induction of arthritis. The data represent the mean increase in foot volume ±1 standard deviation for groups of 9 to 10 animals. The extent of paw swelling in compound-treated animals was compared to the mean of that in the vehicle-treated group, and percentage inhibition was calculated for each dose level of compound.
Contralateral foot volumes were measured by mercury displacement plethysmography prior to, and at days 14 and 21 post induction of arthritis. The data represent the mean increase in foot volume ±1 standard deviation for groups of 9 to 10 animals. The extent of paw swelling in compound-treated animals was compared to the mean of that in the vehicle-treated group, and percentage inhibition was calculated for each dose level of compound.
[…] Data represent the mean weights of organs in mg ±1 standard deviation for groups of 9 to 10 animals.
Total radiographic scores were derived from examination of lateral radiographs obtained prior to, and on day 21 post induction of arthritis.

[2] = biological target: T1, recombinant human PPARδ (GST-PPARδ) (Homo sapiens, UniProt Q03181); test: Scintillation Proximity Assay, displacement of [3H2]Compound B from PPARδ; format: binding; details: SPA, radioligand
T1 construct: The full length human cDNAs for PPARδ and PPARα were subcloned into the pGEX-KT expression vector; made in house; host or cells: E. coli
T1 sequence (Q03181 1-441): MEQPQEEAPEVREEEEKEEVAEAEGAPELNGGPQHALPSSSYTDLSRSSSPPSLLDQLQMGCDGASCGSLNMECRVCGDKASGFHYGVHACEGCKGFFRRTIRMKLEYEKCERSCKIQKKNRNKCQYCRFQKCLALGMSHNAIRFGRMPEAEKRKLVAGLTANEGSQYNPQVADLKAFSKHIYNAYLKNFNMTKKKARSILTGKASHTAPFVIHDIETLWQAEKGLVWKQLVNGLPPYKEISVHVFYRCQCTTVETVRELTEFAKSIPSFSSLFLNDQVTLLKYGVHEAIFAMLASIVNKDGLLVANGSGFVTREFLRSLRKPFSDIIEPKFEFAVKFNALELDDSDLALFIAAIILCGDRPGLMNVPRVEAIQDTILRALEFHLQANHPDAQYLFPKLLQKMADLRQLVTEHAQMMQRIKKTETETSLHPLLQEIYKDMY
Text: As an approach to identifying human PPAR agonists, a Scintillation Proximity Assay was used to characterize PPAR-γ, PPAR-δ, and PPAR-α ligands.
Human PPARγ2, human PPARδ and human PPARα were expressed as GST-fusion proteins in E. coli. The full length human cDNA for PPARγ 2 was subcloned into the pGEX-2 T expression vector (Amersham Pharmacia Biotech, Inc.). The full length human cDNAs for PPARδ and PPARα were subcloned into the pGEX-KT expression vector (Amersham Pharmacia Biotech, Inc.). E. coli containing the respective plasmids were propagated, induced, and harvested by centrifugation. The resuspended pellet was broken in a French press and debris removed by centrifugation. Recombinant human PPAR receptors were purified by affinity chromatography on glutathione sepharose. After application to the column, and one wash, receptor was eluted with glutathione. Glycerol (10%) was added to stabilize the receptor and aliquots were stored at −80° C.
After incubation for ˜16 h at 15° C. with shaking, the assay plates were counted in a Packard Topcount with quench correction.

[3] = tested on: PPAR-α, PPAR-γ and PPAR-δ; test: Classification of ligands according to their PPAR activity (Table A); design: species or system human; details: classification based on IC50 and EC50 data of Table B
[4] = Compound 1 30 mg/kg/day, indomethacin 2 mg/kg/day p.o. q.d.
[5] = day 21, 30 mg/kg q.d. prophylactic
[6] = injected paw, Compound 1 30 mg/kg/day, indomethacin 2 mg/kg/day p.o. q.d.

| Structure (SMILES) | Secondary Foot Volume % Inhibition Compared to Vehicle Day 21-0 [1, 4] | Change in Secondary Foot Volume Day 21-0 [1, 4] | Change in Secondary Foot Volume Day 14-0 [1] | Secondary Foot Volume % Inhibition Compared to Vehicle Day 14-0 [1] | radiographic total scores of contralateral paws compared with vehicle ([1]; day 21) | Change in Primary Foot Volume Day 21-0 [1, 6] | Change in Primary Foot Volume Day 4-0 ([1]; injected paw) | Primary Foot Volume % Inhibition Compared to Vehicle Day 4-0 ([1]; injected paw) | Primary Foot Volume % Inhibition Compared to Vehicle Day 14-0 ([1]; injected paw) | Change in Primary Foot Volume Day 14-0 ([1]; injected paw) | radiographic total scores on day 21, Primary (injected) paw [1, 4] | radiographic total scores on day 21, Secondary (contralateral) Paw [1, 4] | change in body weight Day 21-0 ([1]; Compound 1 30 mg/kg/day) | change in body weight Day 14-0 [1] | body weight gain compared with vehicle-treated animals [1] | degree of thymic involution compared with vehicle ([1]; rat, in vivo) | Spleen [1] | Thymus (mg) [1] | prevention of swelling of primary or secondary paws [1] | Thymus [1] | other results |
| --- | --- | --- | --- | --- | --- | --- | --- | --- | --- | --- | --- | --- | --- | --- | --- | --- | --- | --- | --- | --- | --- |
| Cc1cc(SCc2sc(-c3ccc(C(F)(F)F)cc3)nc2C)ccc1OCC(=O)O.[Na+] [Compound 1] | 77.8% | 246.0 µL | 38 ± 161^++ μL | 92.4% | significantly less | 2612 ± 909 µL | 1510 ± 523^+ μL | 23.1% | 30.0% | 1530 ± 659**^++ μL | 13.0 ± 7.2 | 1.8 ± 3.3^++ | 2.9 ± 7.4**^++ grams | 1.9 ± 6.6**^++ grams | gained more weight than did vehicle-treated animals | less severe | 601.0 ± 52.8 mg | 275.0 ± 50.4**^++ mg | – | – | swelling of the contralateral (secondary) paw [1, 5]: inhibited the day 21 swelling of the contralateral (secondary) paw; swelling of the primary (injected) paw [1, 5]: did not affect the swelling of the primary (injected) paw; Liver (mg) ([1]; rat, in vivo): 1209.0 ± 129.0**^++ mg; liver weight compared with vehicle ([1]; rat, in vivo): significantly heavier |
| CCCc1c(OCCCSc2ccc(CC(=O)O)cc2Cl)ccc2c(C(F)(F)F)noc12 [Compound B, 3-chloro-4-(3-(7-propyl-3-trifluoromethyl-6-benz-[4,5]-isoxazoloxy)propylthio)phenylacetic acid, reference compound] | – | – | – | – | – | – | – | – | – | – | – | – | – | – | – | – | – | – | – | – | Kd [2]: ~1 nM |
| CC(C)OC(=O)C(C)(C)Oc1ccc(C(=O)c2ccc(Cl)cc2)cc1 [Compound 5, Fenofibrate, reference compound] | – | – | 824 ± 186 µL | – | – | – | 1421 ± 212^+ μL | – | – | 1945 ± 415 µL | – | – | – | −7.6 ± 5.3 grams | – | – | 644.4 ± 159.2 mg | – | failed to prevent swelling of either the primary or secondary paws | 155.3 ± 27.8 mg | – |
| Cc1cccc(Nc2cc(Cl)nc(SCC(=O)O)n2)c1C [Compound 4, WY-14643, reference compound] | – | – | 704 ± 421 µL | 22.1% | – | – | 2133 ± 266 µL | 0% | – | 2585 ± 733 µL | – | – | – | −15.2 ± 6.8 grams | – | – | 665.1 ± 69.8 mg | – | failed to prevent swelling of either the primary or secondary paws | 146.8 ± 33.4 mg | PPAR Activity [3]: Alpha Agonist |
| COc1ccc2c(c1)c(CC(=O)O)c(C)n2C(=O)c1ccc(Cl)cc1 [Indomethacin, indomethacin, reference compound] | 79.2% | 201.0 µL | 275 ± 138^++ μL | 62.0% | significantly less | 499 ± 135^++ μL | 798 ± 164^++ μL | 59.2% | 65.7% | 799 ± 159*^++ μL | 4.3 ± 1.3^++ | 3.3 ± 1.3**^++ | 11.6 ± 8.0**^++ grams | 8.6 ± 7.7**^++ grams | gained more weight than did vehicle-treated animals | less severe | 738.0 ± 124.0 mg | 426.0 ± 69.0^++ mg | – | – | radiographic total scores of primary paws compared with vehicle ([1]; day 21): significantly less; Primary Foot Volume % Inhibition Compared to Vehicle Day 21-0 [1, 6]: 79.2%; Liver ([1]; rat, in vivo): 866.0 ± 86.0 mg |
| CN(CCOc1ccc(CC2SC(=O)NC2=O)cc1)c1ccccn1 (stereo not drawn) [Compound 6, Rosiglitazone, reference compound] | – | – | – | – | – | – | – | – | – | – | – | – | – | 0.4 ± 6.4**^++ grams | – | – | 634.5 ± 91.4 mg | – | failed to prevent swelling of either the primary or secondary paws | 187.8 ± 50.4 mg | PPAR Activity [3]: Gamma Agonist |
